Bounds are passed on as bounds.

Holding throughout (test): Kinase panel (mobility shift)
Format in all cases: biochemical

One test deals with T1, EPH-A6 (Homo sapiens, UniProt Q9UF33).
T1 sequence (Q9UF33 23-1036): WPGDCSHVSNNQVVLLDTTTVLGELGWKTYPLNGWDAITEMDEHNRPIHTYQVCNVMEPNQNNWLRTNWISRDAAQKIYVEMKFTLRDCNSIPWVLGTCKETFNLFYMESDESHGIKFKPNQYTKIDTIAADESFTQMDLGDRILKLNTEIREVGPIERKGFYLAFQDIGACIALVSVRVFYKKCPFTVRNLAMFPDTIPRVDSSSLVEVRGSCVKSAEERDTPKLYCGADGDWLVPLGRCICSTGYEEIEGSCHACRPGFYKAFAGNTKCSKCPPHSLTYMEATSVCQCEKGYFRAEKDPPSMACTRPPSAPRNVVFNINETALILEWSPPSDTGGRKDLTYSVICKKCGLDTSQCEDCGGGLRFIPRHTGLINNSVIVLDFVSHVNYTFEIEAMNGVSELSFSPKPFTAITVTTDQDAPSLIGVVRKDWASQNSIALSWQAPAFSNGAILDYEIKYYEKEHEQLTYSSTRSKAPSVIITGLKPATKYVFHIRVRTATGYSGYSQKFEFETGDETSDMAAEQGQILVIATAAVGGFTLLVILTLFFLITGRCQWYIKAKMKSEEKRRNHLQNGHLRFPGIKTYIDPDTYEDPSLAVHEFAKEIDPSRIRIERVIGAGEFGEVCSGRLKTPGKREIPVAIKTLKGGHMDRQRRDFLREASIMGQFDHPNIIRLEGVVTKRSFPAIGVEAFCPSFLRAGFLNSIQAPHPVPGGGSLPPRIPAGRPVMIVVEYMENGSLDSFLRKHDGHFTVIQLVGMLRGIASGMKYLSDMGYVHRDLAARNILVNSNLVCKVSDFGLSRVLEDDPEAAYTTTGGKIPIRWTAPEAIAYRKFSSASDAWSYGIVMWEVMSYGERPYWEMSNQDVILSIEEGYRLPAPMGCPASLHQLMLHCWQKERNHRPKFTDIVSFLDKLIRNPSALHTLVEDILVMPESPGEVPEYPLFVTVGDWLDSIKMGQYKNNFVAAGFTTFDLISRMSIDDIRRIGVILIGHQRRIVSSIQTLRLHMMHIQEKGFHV
In a few lines:
(§1)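 Microfluidic mobility-shift readout: product and substrate peaks are resolved by charge, and their fluorescence is compared to give enzyme activity. Enzyme, fluorescent substrate and test compound are reacted, then terminated before chip loading. Values are binned at 5 um: A 95% or greater, B 90%-94%, C 80%-89%.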

The target in a further test is T2, EPH-A8 (Homo sapiens, UniProt P29322).
T2 sequence (P29322 28-1005): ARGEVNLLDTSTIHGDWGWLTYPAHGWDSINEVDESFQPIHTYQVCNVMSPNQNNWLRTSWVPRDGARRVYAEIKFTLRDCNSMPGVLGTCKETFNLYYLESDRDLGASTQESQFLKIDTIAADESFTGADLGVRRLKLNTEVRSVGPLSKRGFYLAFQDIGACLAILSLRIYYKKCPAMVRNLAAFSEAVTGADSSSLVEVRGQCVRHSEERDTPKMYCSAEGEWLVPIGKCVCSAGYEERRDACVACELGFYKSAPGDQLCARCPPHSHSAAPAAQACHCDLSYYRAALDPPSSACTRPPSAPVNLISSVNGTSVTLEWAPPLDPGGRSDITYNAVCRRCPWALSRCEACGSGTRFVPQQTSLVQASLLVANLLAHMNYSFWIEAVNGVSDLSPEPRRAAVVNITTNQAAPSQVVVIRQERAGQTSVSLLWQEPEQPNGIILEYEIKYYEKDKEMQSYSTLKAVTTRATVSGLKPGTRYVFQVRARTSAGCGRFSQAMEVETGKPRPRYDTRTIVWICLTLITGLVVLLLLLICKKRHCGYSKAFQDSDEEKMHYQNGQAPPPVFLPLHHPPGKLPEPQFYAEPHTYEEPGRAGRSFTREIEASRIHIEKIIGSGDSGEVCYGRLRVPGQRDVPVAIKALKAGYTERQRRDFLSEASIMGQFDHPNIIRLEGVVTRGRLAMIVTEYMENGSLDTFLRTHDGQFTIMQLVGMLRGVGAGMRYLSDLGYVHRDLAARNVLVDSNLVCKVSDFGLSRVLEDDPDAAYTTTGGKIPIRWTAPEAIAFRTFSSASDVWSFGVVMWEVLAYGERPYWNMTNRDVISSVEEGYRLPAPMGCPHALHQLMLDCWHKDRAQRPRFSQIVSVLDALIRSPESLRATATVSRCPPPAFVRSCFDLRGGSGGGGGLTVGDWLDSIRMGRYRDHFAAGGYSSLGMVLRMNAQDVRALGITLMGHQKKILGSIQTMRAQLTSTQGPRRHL
Summed up:
as §1

The target in a further test is T3, HIPK4 (Homo sapiens, UniProt Q8NE63).
T3 sequence (Q8NE63 1-616): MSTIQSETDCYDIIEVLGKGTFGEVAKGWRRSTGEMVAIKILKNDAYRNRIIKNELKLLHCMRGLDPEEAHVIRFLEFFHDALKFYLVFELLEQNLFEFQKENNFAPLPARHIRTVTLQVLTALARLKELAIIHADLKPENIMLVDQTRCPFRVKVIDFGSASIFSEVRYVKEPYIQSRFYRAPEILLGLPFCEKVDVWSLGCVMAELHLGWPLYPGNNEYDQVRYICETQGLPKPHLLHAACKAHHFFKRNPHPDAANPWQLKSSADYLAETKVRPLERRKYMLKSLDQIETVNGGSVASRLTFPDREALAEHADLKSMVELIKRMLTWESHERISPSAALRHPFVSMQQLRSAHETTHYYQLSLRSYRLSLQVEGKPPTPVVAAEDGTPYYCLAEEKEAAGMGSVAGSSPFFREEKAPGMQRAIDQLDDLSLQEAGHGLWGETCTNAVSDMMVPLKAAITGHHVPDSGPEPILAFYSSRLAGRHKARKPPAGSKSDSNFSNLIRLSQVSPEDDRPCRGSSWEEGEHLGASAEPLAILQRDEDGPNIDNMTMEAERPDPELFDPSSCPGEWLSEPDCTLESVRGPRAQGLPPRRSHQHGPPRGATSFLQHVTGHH
In a few lines: as §1

Broadly, the inhibition is the change of the read-out against control, counted positive when it falls. In the case of `CSc1nc(C(=O)Nc2ccc(Oc3ccnc(C(=O)NC4COC4)c3)c(F)c2)c(-c2ccc(F)cc2)o1` [Compound 31], the inhibition at 5 µM on EPH-A6 is 80 to 89%; at EPH-A8, less than 50%; on HIPK4, no less than 95%.

For the compound `CNC(=O)c1cc(Oc2ccc(NC(=O)c3nc(OC4CC4)oc3-c3ccc(F)cc3)cc2F)ccn1` [Compound 32], the inhibition at 5 µM on EPH-A6 was 90 to 94%; on EPH-A8, 80 to 89%; on HIPK4, no less than 95%.

For the compound `[2H]C([2H])([2H])NC(=O)c1cc(Oc2ccc(NC(=O)c3nc(SC)oc3-c3ccc(F)c(F)c3)cc2F)ccn1` [Compound 33], the inhibition at 5 µM is 50 to 79% at EPH-A6, less than 50% at EPH-A8 and no less than 95% at HIPK4.

Turning to `CNC(=O)c1cc(Oc2ccc(NC(=O)c3nc(SC(C)C)oc3-c3ccc(F)cc3)cc2F)ccn1` [Compound 34], the results for the inhibition at 5 µM at EPH-A6, on EPH-A8 and at HIPK4 were 90 to 94%, 80 to 89% and no less than 95%, respectively.

As for `[2H]C([2H])([2H])NC(=O)c1cc(Oc2ccc(NC(=O)c3nc(SC)oc3-c3ccc(F)s3)cc2F)ccn1` [Compound 35], the values for the inhibition at 5 µM at EPH-A6, at EPH-A8 and on HIPK4 were 50 to 79%, less than 50% and no less than 95%, respectively.

As to `CNC(=O)c1ccc(Oc2ccc(NC(=O)c3nc(Cl)oc3-c3ccc(F)cc3)c(F)c2)cn1` [Compound 36], the results for the inhibition at 5 µM at EPH-A6, on EPH-A8 and on HIPK4 were 50 to 79%, less than 50% and 80 to 89%, respectively.

Regarding `CSc1nc(C(=O)Nc2ccc(Oc3ccnc(C(=O)NC4COC4)c3)c(F)c2)c(-c2ccc(F)c(F)c2)o1` [Compound 37], the inhibition at 5 µM is less than 50% at EPH-A6, less than 50% on EPH-A8 and no less than 95% on HIPK4.

For the compound `CNC(=O)c1cc(Oc2ccc(NC(=O)c3nc(OCC(F)(F)F)oc3-c3ccc(F)cc3)cc2F)ccn1` [Compound 38], the figures for the inhibition at 5 µM at EPH-A6, at EPH-A8 and at HIPK4 were 80 to 89%, 50 to 79% and no less than 95%, respectively.

Consider `COc1nc(C(=O)Nc2ccc(Oc3ccnc(C(=O)NC4COC4)c3)c(F)c2)c(-c2ccc(F)cc2)o1` [Compound 39], for which the figures for the inhibition at 5 µM on EPH-A6, at EPH-A8 and on HIPK4 were 80 to 89%, less than 50% and no less than 95%, respectively.

As for `CSc1nc(C(=O)Nc2ccc(Oc3ccnc(C(=O)NCC(F)(F)F)c3)c(F)c2)c(-c2ccc(F)cc2)o1` [Compound 40], the figures for the inhibition at 5 µM at EPH-A6, on EPH-A8 and at HIPK4 were less than 50%, less than 50% and no less than 95%, respectively.

Take `CSc1nc(C(=O)Nc2ccc(Oc3ccnc(C(=O)NCCN(C)C)c3)c(F)c2)c(-c2ccc(F)cc2)o1` [Compound 41]: the inhibition at 5 µM is 80 to 89% on EPH-A6, 50 to 79% on EPH-A8 and no less than 95% on HIPK4.

For the compound `CSc1nc(C(=O)Nc2ccc(Oc3ccnc(C(=O)NC4CCN(C)CC4)c3)c(F)c2)c(-c2ccc(F)cc2)o1` [Compound 42], the values for the inhibition at 5 µM at EPH-A6, on EPH-A8 and on HIPK4 were 50 to 79%, less than 50% and no less than 95%, respectively.

Turning to `COc1nc(C(=O)Nc2ccc(Oc3ccnc(C(=O)NCC(F)(F)F)c3)c(F)c2)c(-c2ccc(F)cc2)o1` [Compound 43], the results for the inhibition at 5 µM at EPH-A6, on EPH-A8 and at HIPK4 were less than 50%, less than 50% and no less than 95%, respectively.

Values taken from patent publication US11629143B2, “HipK4 inhibitors and uses thereof” (Vibliome Therapeutics, LLC, priority 2020, dated 2023).
